Assay results from paper PMC7083565, “In vitro metabolism, reaction phenotyping, enzyme kinetics, CYP inhibition and induction potential of ataluren” (Pharmacology Research & Perspectives, 2020).

Tests used:
Format in all cases: in vitro ADME
[1] = Free fraction in human liver microsomes (internal data); details: between 1 and 200 µmol/L, 0.1 mg/mL protein concentration
CYP2C19 [2] = experiment: CYP induction in primary human hepatocytes: CYP2C19; details: male, 48 h
Experimental: Human hepatocytes isolated from three Caucasian males were transferred to 48‐well collagen‐coated plates at 0.14 × 10^6 cells/well in planting media for attachment. After attachment, planting media was replaced with sandwich media and the cells were incubated until clusters were established. […] The incubation solutions were aspirated and replaced with freshly prepared incubation solutions containing ataluren for an additional 24 hours. […] The incubation solutions were then aspirated and 150 µL of K‐H buffer containing CYP substrates were added. […] Metabolite formation in incubations with test compounds and control inhibitors was assessed with validated LC‐MS/MS methods for each of the reaction products as described in Table S2. Enzymatic activity for each CYP was calculated using the absolute amount of metabolite formed (pmol) divided by hepatocytes in the incubation (million cells) and the incubation time (minute). The relative fold induction in enzymatic activity was calculated by comparing the rate of metabolite formation for treatment groups to that of the solvent control group (reported as vehicle control%) or positive control group (reported as positive control%).

CYP2C19 [3] = molecular target: T1, CYP2C19 (Homo sapiens, UniProt P33261); experiment: CYP inhibition in pooled human liver microsomes: CYP2C19; details: CYP2C19, HLM, estimated, concentrations up to 400 μmol/L
T1 construct: tissue XenoTech LLC, Celsis-In Vitro Technologies, or Tissue Transformation Technologies; host or cells: pooled human liver microsomes
Experimental: The final concentration of each probe substrate was near the experimentally determined Km value for the indicated enzyme. Ataluren or prototypical CYP inhibitors (positive controls) was incubated (n = 3) with probe substrates and HLM in 100 mmol/L phosphate buffer (pH 7.4) in a total volume of approximately 0.25 mL, and the reactions were initiated by the addition of 1 mmol/L NADPH at 37°C. The reactions were carried out using previously established conditions to ensure linearity with respect to protein concentration and incubation time (Table S1). Incubations were stopped with the addition of ice‐cold acetonitrile. Metabolite formation in incubations with test compound and control inhibitors was assessed with LC‐MS/MS methods for each of the reaction products as described in Table S2. […] After 7 minutes incubation at 37°C, the reaction was stopped by the addition of ice‐cold acetonitrile, followed by membrane plate filtration. The filtrates were used for LC‐MS/MS analysis. […] IC50 values were determined by nonlinear regression with GraphPad Prism 5 using the following four‐parameter sigmoidal‐logistic IC50 equation: Fit=background+range-background/[1+I/IC50^slope]
Where, I is the inhibitor concentration, and background was set to 0 and range to 100, as percent of control values are utilized. K i was determined by nonlinear regression with GraphPad Prism 5 using best fit model.

[4] = Glucuronidation in pooled human lung microsomes; details: lung microsomes 1 mg protein/mL, 10 μmol/L
Experimental: Ataluren at 10 μmol/L, was incubated (n = 1) with pooled human intestinal, lung, and kidney microsomes (1 mg protein/mL, preactivated with alamethicin) to evaluate if ataluren‐O‐1β‐acyl glucuronide will be formed in these extrahepatic tissues. Incubation mixtures and procedures were essentially the same as the above. The supernatant fractions were analyzed by LC‐MS/MS to quantify the formation of ataluren‐O‐1β‐acyl glucuronide and the loss of ataluren. Detailed LC‐MS/MS conditions are summarized in LC‐MS/MS Analysis section. […] The ataluren acyl glucuronide formation rate after 60 minutes incubation was calculated using the amount of metabolite formed (pmol) divided by the protein amount in the incubation sample ([…]) and the incubation time (60 minutes).
Quantification of ataluren loss and ataluren‐O‐1β‐acyl glucuronide formation was carried out with an LC‐MS/MS system, which consisted of two Shimadzu LC‐10ADvp pumps, a SPD10‐AVP UV/Vis detector, a Shimadzu SILHTA autosampler, a Shimadzu DGU‐14A degasser, and a Sciex API 4000 QTRAP mass spectrometer equipped with a Turbo Ionspray ionization source that operated in positive ionization mode. […] Ion transitions monitored were at m/z 285 → m/z 123 for ataluren, m/z 461 → m/z 285 for ataluren acyl glucuronide, and m/z 289 → m/z 127 for ataluren‐D4 (internal standard), respectively.

T1 sequence (P33261 whole entry): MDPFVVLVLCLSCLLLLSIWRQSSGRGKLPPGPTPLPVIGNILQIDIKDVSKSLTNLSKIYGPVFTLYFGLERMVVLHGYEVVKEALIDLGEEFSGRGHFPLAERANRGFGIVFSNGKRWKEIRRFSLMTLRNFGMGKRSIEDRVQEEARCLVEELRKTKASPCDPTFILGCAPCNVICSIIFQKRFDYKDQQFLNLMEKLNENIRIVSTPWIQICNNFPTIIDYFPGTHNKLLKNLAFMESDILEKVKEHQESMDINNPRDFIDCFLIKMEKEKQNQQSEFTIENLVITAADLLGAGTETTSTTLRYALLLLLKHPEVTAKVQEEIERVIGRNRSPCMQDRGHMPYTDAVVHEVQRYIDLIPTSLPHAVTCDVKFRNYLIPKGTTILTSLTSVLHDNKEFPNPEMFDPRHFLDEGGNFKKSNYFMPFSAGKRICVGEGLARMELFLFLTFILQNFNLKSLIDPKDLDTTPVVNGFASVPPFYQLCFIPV

Question: Which “Free fractions of ataluren in human liver microsomes” value [1] does the source give for O=C(O)c1cccc(-c2noc(-c3ccccc3F)n2)c1 [ataluren, Ataluren] here?
Answer: close to unity

Question: And the “Vehicle control %, Mean” value (CYP2C19 [2]; 4 µM)?
Answer: 112%

Question: And the “Vehicle control %, Mean” value (CYP2C19 [2]; 400 µM)?
Answer: 99.0%

Question: What about the IC50 (CYP2C19 [3]) of the same compound?
Answer: > 400 µM

Question: What about the “Glucuronidation of ataluren observed” value [4] of the same compound?
Answer: not in lung microsomes
